Reference: patent US9586952B2, “Polycyclic estrogen receptor modulators and uses thereof” (SERAGON PHARMACEUTICALS, INC., priority 2013, dated 2017)

What was measured:
ER-α = target: T1, ER-α (Homo sapiens, UniProt P03372); assay: Breast Cancer Cell ER-α In Cell Western Assay (SP1); assay type: cell-based; settings: MCF-7 cells, 4 or 24 hr post compound addition, SP1 antibody; for Emax: MCF7, read-out: ER-α In Cell Western Assay (SP1) Max Response; for DC50: read-out: ER-α In Cell Western Assay (SP1) IC50
T1 construct: endogenous in cells; host or cells: MCF-7
T1 sequence (P03372 1-595): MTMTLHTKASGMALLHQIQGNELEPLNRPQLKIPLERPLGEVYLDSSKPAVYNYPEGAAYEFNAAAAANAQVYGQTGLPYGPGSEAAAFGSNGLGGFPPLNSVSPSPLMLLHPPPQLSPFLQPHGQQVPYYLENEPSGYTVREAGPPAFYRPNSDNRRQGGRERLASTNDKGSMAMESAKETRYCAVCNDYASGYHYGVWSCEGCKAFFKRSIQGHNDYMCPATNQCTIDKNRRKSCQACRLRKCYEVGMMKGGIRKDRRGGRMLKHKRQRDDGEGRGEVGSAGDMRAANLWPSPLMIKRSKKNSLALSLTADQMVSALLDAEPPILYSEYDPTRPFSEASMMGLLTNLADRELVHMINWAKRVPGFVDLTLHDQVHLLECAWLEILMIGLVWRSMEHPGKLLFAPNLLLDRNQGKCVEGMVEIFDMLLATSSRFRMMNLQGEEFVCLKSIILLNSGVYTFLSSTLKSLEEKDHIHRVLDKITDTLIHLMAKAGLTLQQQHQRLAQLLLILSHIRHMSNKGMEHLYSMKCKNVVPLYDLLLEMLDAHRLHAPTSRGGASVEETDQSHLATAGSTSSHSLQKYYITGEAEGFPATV
Description: MCF-7 cells were adjusted to a concentration of 200,000 cells per mL in RPMI containing 10% charcoal-stripped FBS and 20 mM HEPES. 16 microliters of the cell suspension (3200 cells) was added to each well of a poly-D-lysine 384 well plate, and the cells were incubated overnight to allow the cells to adhere. The following day an eleven point, serial semilog dilution of each compound was added to the cells in 16 μL at a final concentration ranging from 0.3-0.000003 μM. At 4 or 24 hr post compound addition, the cells were fixed (10% formalin in PBS) for 20 minutes. Cells were permeablized in PBS 0.1% Triton and blocked with LICOR blocking buffer (50 μl/well, 90′). The wells were then incubated overnight at 4° C. with SP1 rabbit monoclonal Ab (Thermo Scientific) diluted 1:1000 in LICOR blocking buffer/0.1% Tween-20. Wells which were treated with blocking buffer with Tween but no antibody were used as a background control. Wells were washed with 0.1% Tween-20/PBS and then incubated in goat anti-rabbit IRDye™ 800 CW (LICOR Inc.; 1:10000) and DRAQ5 DNA dye (1:2000 for 2 mM stock) diluted in LICOR blocking buffer containing 0.1% Tween-20 and 0.01% SDS for 60 minutes. Cells were washed (50 μl/well, 5′ each) in 0.1% Tween-20/PBS. Plates were scanned on a LICOR Odyssey infrared imaging system. Integrated intensities in the 800 nm channel and 700 nm channel were measured to determine levels of ER and DNA respectively. Percent ER levels were determined as follows: (Integrated intensity 800 nm sample/integrated intensity 700 nm sample)/(Integrated intensity 800 nm untreated cells/integrated intensity 700 nm untreated cells)×100=% ER levels.

MCF-7 cells = assay: MCF7 Viability Assay (Breast Cancer Cell Viability Assay); assay type: cell-based; settings: 5 days' compound exposure, CellTiter-Glo; for IC50: Homo sapiens, MCF7, 120 h
Description: MCF-7 cells were adjusted to a concentration of 20,000 cells per mL in RPMI containing 10% FBS and 20 mM HEPES. 16 microliters of the cell suspension (320 cells) was added to each well of a 384 well plate, and the cells were incubated overnight to allow the cells to adhere. The following day an eleven point, serial semilog dilution of each compound was added to the cells in 16 μL at a final concentration ranging from 0.3-0.000003 μM. After 5 days' compound exposure, 16 μL of CellTiter-GLo (Promega, Madison Wis.) was added to the cells, and the relative luminescence units (RLUs) of each well were determined. CellTiter-Glo added to 32 μL of medium without cells was used to obtain a background value. The Percent viability of each sample was determined as follows: (RLU sample-RLU background/RLU untreated cells-RLU background)×100=% viability.

Row | Emax (ER-α) | DC50 (ER-α) | IC50 (MCF-7 cells) | SMILES | MCF7 Viability Assay Max Response (MCF-7 cells)
1 | ≥ 40% | ≤ 100 nM | ≤ 100 nM | O=C(O)/C=C/c1ccc(/C(=C(\c2ccc(F)cc2Cl)C2CCC2)c2ccc(-c3cn[nH]c3)cc2)cc1 [Example 37, (E)-3-(4-((E)-1-(4-(1H-Pyrazol-4-yl)phenyl)-2-(2-chloro-4-fluorophenyl)-2-cyclobutylvinyl)phenyl)acrylic acid] | ++ (++ = a single % value ≧ 40%)
2 | ≥ 40% | ≤ 100 nM | ≤ 100 nM | Cc1cscc1/C(=C(\c1ccc(/C=C/C(=O)O)cc1)c1ccc(-c2cn[nH]c2)cc1)C1CCC1 [Example 38, (E)-3-(4-((E)-1-(4-(1H-Pyrazol-4-yl)phenyl)-2-cyclobutyl-2-(4-methylthiophen-3-yl)vinyl)phenyl)acrylic acid] | ++ (++ = a single % value ≧ 40%)
3 | ≥ 40% | ≤ 100 nM | ≤ 100 nM | COc1cc(C)c(/C(=C(\c2ccc(/C=C/C(=O)O)cc2)c2ccc(N3CCOCC3)cc2)C2CCC2)cn1 [Example 39, (E)-3-(4-((E)-2-Cyclobutyl-2-(6-methoxy-4-methylpyridin-3-yl)-1-(4-morpholinophenyl)vinyl)phenyl)acrylic acid] | ++ (++ = a single % value ≧ 40%)
4 | ≥ 40% | ≤ 100 nM | > 100 nM | Cc1cccnc1/C(=C(\c1ccc(/C=C/C(=O)O)cc1)c1ccc(-c2cn[nH]c2)cc1)C1CCC1 [Example 40, (E)-3-(4-((E)-1-(4-(1H-Pyrazol-4-yl)phenyl)-2-cyclobutyl-2-(3-methylpyridin-2-yl)vinyl)phenyl)acrylic acid] | ++ (++ = a single % value ≧ 40%)
5 | ≥ 40% | ≤ 100 nM | > 100 nM | O=C(O)/C=C/c1ccc(/C(=C(\c2ncccc2F)C2CCC2)c2ccc(-c3cn[nH]c3)cc2)cc1 [Example 41, (E)-3-(4-((E)-1-(4-(1H-Pyrazol-4-yl)phenyl)-2-cyclobutyl-2-(3-fluoropyridin-2-yl)vinyl)phenyl)acrylic acid] | ++ (++ = a single % value ≧ 40%)
6 | ≥ 40% | ≤ 100 nM | ≤ 100 nM | O=C(O)/C=C/c1ccc(/C(=C(\c2ncccc2Cl)C2CCC2)c2ccc(-c3cn[nH]c3)cc2)cc1 [Example 42, (E)-3-(4-((E)-1-(4-(1H-Pyrazol-4-yl)phenyl)-2-(3-chloropyridin-2-yl)-2-cyclobutylvinyl)phenyl)acrylic acid] | ++ (++ = a single % value ≧ 40%)
7 | ≥ 40% | ≤ 100 nM | ≤ 100 nM | O=C(O)/C=C/c1ccc(/C(=C(\c2ncccc2Cl)C2CCC2)c2ccc(N3CCOCC3)cc2)cc1 [Example 43, (E)-3-(4-((E)-2-(3-Chloropyridin-2-yl)-2-cyclobutyl-1-(4-morpholinophenyl)vinyl)phenyl)acrylic acid] | ++ (++ = a single % value ≧ 40%)
8 | ≥ 40% | ≤ 100 nM | ≤ 100 nM | N#Cc1cc(Cl)ccc1/C(=C(\c1ccc(/C=C/C(=O)O)cc1)c1ccc(-c2cn[nH]c2)cc1)C1CCC1 [Example 44, (E)-3-(4-((E)-1-(4-(1H-Pyrazol-4-yl)phenyl)-2-(4-chloro-2-cyanophenyl)-2-cyclobutylvinyl)phenyl)acrylic acid] | ++ (++ = a single % value ≧ 40%)
9 | ≥ 40% | ≤ 100 nM | ≤ 100 nM | N#Cc1ccc(/C(=C(\c2ccc(/C=C/C(=O)O)cc2)c2ccc(N3CCOCC3)cc2)C2CCC2)c(Cl)c1 [Example 45, (E)-3-(4-((E)-2-(2-Chloro-4-cyanophenyl)-2-cyclobutyl-1-(4-morpholinophenyl)vinyl)phenyl)acrylic acid] | ++ (++ = a single % value ≧ 40%)
